In US7144856B2, “Inhibitors of dipeptidyl peptidase I” (Probiodrug AG, priority 2001, dated 2006):
Structures can show the parent of a compound that is named as a salt.

T1: DP I (Rattus norvegicus, UniProt P80067)
T1 sequence (P80067 with tags, fused parts or gaps): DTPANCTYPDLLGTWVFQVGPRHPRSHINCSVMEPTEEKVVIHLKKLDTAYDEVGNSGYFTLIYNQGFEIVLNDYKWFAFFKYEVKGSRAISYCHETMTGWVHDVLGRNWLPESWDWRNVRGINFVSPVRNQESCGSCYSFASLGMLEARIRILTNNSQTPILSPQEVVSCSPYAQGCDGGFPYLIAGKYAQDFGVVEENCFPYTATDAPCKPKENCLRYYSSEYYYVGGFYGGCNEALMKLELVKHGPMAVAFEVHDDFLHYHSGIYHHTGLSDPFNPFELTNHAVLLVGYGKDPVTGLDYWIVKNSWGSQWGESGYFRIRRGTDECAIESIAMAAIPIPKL

T2: cathepsin H (Homo sapiens, UniProt P09668)
T2 sequence (P09668 98-335): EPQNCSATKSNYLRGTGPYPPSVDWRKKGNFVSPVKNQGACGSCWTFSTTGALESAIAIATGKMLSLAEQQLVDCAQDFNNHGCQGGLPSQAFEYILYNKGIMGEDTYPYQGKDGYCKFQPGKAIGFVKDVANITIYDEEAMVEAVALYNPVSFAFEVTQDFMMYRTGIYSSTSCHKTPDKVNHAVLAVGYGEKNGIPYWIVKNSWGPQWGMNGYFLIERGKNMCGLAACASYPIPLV


Assays:
DP I [1] = molecular target: T1, DP I; settings: background, literature; cited from earlier work
DP I [2] = molecular target: T3, DP I (Rattus norvegicus, UniProt P80067); experiment: determination of second order rate constant kinact/Ki for DP I; format: biochemical; settings: substrate Gly-Arg-pNA 1 mM and 0.5 mM
T3 construct: purchased Qiagen
Procedure: For the Ki-value determination a UV-spectrophotometer (Lambda 20, PerkinElmer, Überlingen, Germany) was used. The reaction was monitored via the p-nitroaniline released from the substrate (Gly-Arg-pNA) at λ=390 nm. DP I (1 U/mg, assay condition: Tagzyme handbook, Qiagen, Hilden, Germany) was diluted in MES-buffer (1:1000) and preincubated and activated for 30 min on crashed ice. The reaction mixture consists: 500 μl stock solution MES-buffer, 500 μl HCl*Gly-L-Arg-pNA, 250 μl inhibitor, 50 μl DP I. In order to calculate the second order rate constant (kinact/Ki) two substrate concentrations (1 mM and 0.5 mM in the incubation mixture) were combined with 6 inhibitor concentrations (5*10^−7 M to 3*10^−8 M in the assay). From the product-time-course the observed first order rate constant was determined.
Plotting 1/kobs versus substrate concentration allows the calculation of the real first order rate constant of inactivation for each inhibitor concentration at [S]=0.
Based on this equation Ki and kinact can be determined.

[3] = system: L-929 (murine fibroblast cell line); experiment: cytotoxicity assay, L-929 cells; format: cell-based; settings: 24 hours incubation
Procedure: (§1) The toxicological potential of the compounds provided therein against murine cell lines is different from their toxicological potential against human cell lines. Selected compounds, based on the general formula (II) above, were tested concerning their cytotoxicological potential against the two cell-lines, L-929 (murine fibroblast cell line) and Hep-G2 (human hepatocyte cell line) cells.
(§2) HEP-G2, a human hepatocyte cell line (ACC180) and L-929, a mouse fibroplast cell line (ACC2) were grown in RPMI 1604 with 10% fetal bovine serum and 60 μg/ml gentamycin.
(§3) All cultures were fed every 2–3 days and incubated in an humified chamber at 37° C. and 5% CO2. For determining the cytotoxicity of different DPI-inhibitors, we used the CytoTox96™ Non-radioactive Cytotoxicity Assay (Promega, Madison, Wis., USA). HEP-G2 (30000 cells per well) and L-929 (20000 cells per well) were placed in 96 well plates in RPMI 1604 with 10% fetal bovine serum and grown for 24 hours. The cells were then incubated with various concentrations of different DPI-inhibitors for 24 hours in RPMI 1604 with 10% fetal bovine serum. One hour after addition of MTS-solution, the reaction was stopped by adding stop-solution of Promega. The absorbance was measured at 490 nm with a spectrophotometer. All experiments were performed twice simultaneously in three wells.

cathepsin L = cathepsin L (Homo sapiens, UniProt P07711); experiment: cross-reactivity against cathepsin L, IC50; format: biochemical; settings: n.i. = no inhibition; read-out: IC50 Cath. L
Procedure: (§4) Selected compounds, based on the general formula (II) below, were tested concerning their inhibitory potential against DP I and for their cross-reactivity against three more cysteine proteases, namely cathepsin B, H, L and another dipeptidyl peptidase, dipeptidyl peptidase IV (DP IV).

cathepsin H = molecular target: T2, cathepsin H; experiment: cross-reactivity against cathepsin H, IC50; format: biochemical; settings: n.i. = no inhibition; for IC50: read-out: IC50 Cath. H
Procedure: as §4

cathepsin B = cathepsin B (Homo sapiens, UniProt P07858); experiment: cross-reactivity against cathepsin B, IC50; format: biochemical; settings: n.i. = no inhibition; read-out: IC50 Cath. B
Procedure: as §4

[4] = system: Hep-G2 (human hepatocyte cell line); experiment: cytotoxicity assay, Hep-G2 cells; format: cell-based; settings: 24 hours incubation
Procedure: as §1, §2, §3

[5] = molecular target: dipeptidyl peptidase IV (DP IV) (Homo sapiens, UniProt P27487); experiment: cross-reactivity against dipeptidyl peptidase IV, IC50; format: biochemical; settings: n.i. = no inhibition
Procedure: as §4

Chain of dipeptidyl peptidase IV (DP IV) (P27487 whole entry, species assumed): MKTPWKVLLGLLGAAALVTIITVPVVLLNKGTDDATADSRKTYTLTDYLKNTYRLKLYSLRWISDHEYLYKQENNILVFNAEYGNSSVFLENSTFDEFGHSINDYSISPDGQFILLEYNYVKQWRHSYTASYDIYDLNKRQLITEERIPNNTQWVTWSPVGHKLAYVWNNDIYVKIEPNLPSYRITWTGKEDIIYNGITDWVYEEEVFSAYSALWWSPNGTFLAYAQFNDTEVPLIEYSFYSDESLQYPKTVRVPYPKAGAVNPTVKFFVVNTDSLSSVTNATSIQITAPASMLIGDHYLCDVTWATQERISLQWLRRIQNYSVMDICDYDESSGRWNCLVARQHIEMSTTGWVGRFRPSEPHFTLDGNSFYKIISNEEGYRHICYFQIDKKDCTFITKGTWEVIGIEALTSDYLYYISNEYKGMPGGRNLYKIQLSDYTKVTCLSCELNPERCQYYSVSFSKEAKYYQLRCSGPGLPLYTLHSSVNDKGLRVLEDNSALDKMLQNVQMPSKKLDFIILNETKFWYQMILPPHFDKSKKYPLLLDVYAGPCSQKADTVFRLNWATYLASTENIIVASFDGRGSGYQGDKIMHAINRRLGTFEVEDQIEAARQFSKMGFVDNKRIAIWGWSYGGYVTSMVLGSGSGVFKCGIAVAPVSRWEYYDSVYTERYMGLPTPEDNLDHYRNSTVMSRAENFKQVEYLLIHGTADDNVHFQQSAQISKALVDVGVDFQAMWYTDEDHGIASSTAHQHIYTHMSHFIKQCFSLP
Chain of cathepsin L (P07711 114-333): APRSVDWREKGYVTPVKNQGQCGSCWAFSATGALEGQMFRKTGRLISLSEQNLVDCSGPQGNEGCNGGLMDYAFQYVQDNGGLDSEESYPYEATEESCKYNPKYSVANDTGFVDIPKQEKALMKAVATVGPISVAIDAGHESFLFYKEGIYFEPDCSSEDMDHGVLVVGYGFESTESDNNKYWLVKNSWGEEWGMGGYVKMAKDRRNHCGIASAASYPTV

Molecule | inhibition of DP I (in words) (DP I [1]) | kinact/KI (DP I [2]) [M⁻¹ s⁻¹] | IC50 (cathepsin L) [µM] | IC50 (cathepsin B) [µM] | IC50 DP IV [5] | other results
CC(=O)N[C@@H](CC(C)C)C(=O)N[C@@H](CC(C)C)C(=O)N[C@H](C=O)CCCNC(=N)N [leupeptin, reference compound] | weak inhibition |  |  |  |  | 
Cc1ccc(C(=O)ONC(=O)[C@H](Cc2ccccc2)NC(=O)CN)cc1 (as salt: TFA) [compound 12, TFA*H-Gly-L-Phe-NHO-Bz-p-CH3] |  |  |  |  |  | melting point: 98 to 101 °C
NCC(=O)N[C@@H](Cc1ccccc1)C(=O)NOC(=O)c1ccc([N+](=O)[O-])cc1 [compound 13, TFA*H-Gly-L-Phe-NHO-Bz-p-NO2] |  | 79000 | 7.32 | 5.31 | n.i. | LD50 L-929 [3]: 2.3 mg/mL; IC50 (cathepsin H): 34.7 µM; LD50 Hep-G2 [4]: 0.8 mg/mL
Cc1ccc(C(=O)ONC(=O)[C@H](Cc2ccccc2)NC(=O)CN)cc1 [compound 12, TFA*H-Gly-L-Phe-NHO-Bz-p-CH3] |  | 19000 | 33.1 | 34 | n.i. | IC50 (cathepsin H): 154 µM
CNCC(=O)N[C@@H](Cc1ccccc1)C(=O)NOC(=O)c1ccccc1 (as salt: TFA) [compound 14, TFA*H-Sar-L-Phe-NHO-Bz] |  |  |  |  |  | melting point: 69 to 71 °C
CC(C)C[C@H](NC(=O)[C@H]1O[C@@H]1C(=O)O)C(=O)NCCCCN=C(N)N [E-64, reference compound] | weak inhibition |  |  |  |  | 
CC(=O)ONC(=O)[C@H](Cc1ccccc1)NC(=O)CN [compound 10, TFA*H-Gly-L-Phe-NHO-Ac] |  | 39000 | 156 | 117 | n.i. | LD50 L-929 [3]: 4.3 mg/mL; IC50 Cath. H (cathepsin H): n.i.; LD50 Hep-G2 [4]: 1.6 mg/mL
NCC(=O)N[C@@H](Cc1ccccc1)C(=O)NOC(=O)c1ccccc1 [compound 11, TFA*H-Gly-L-Phe-NHO-Bz] |  | 400000 | 36.9 | 37.7 | n.i. | LD50 L-929 [3]: 1.0 mg/mL; IC50 Cath. H (cathepsin H): n.i.; LD50 Hep-G2 [4]: 0.8 mg/mL
CNCC(=O)N[C@@H](Cc1ccccc1)C(=O)NOC(=O)c1ccccc1 [compound 14, TFA*H-Sar-L-Phe-NHO-Bz] |  | 140000 | 4.61 | 41.8 | n.i. | IC50 (cathepsin H): 205 µM
chicken cystatin (protein, UniProt P01038 24-139, looked up) Cystatin: SEDRSRLLGAPVPVDENDEGLQRALQFAMAEYNRASNDKYSSRVVRVISAKRQLVSGIKYILQVEIGRTTCPKSSGDLQSCEFHDEPEMAKYTTCTFVVYSIPWLNQIKLLESKCQ | Stronger reversible inhibitors |  |  |  |  | 
stefin A (protein, UniProt P01040 1-98, looked up) Cystatin-A: MIPGGLSEAKPATPEIQEIVDKVKPQLEEKTNETYGKLEAVQYKTQVVAGTNYYIKVRAGDNKYMHLKVFKSLPGQNEDLVLTGYQVDKNKDDELTGF | Stronger reversible inhibitors |  |  |  |  | 
